# According to PMC8388802, “Study on the Structure-Activity Relationship of an Antimicrobial Peptide, Brevinin-2GUb, from the Skin Secretion of Hylarana guentheri” (Antibiotics, 2021):
# Where a SMILES comes first, the peptide text is derived from it.
# Assays:
# [1] = system: P. aeruginosa (ATCC CRM 9027) biofilm; assay type: cell-based, Pseudomonas aeruginosa; details: ATCC CRM 9027, 24 h
# Procedure: (§1) The anti-biofilm activities of the peptides against S. aureus (ATCC 6538), MRSA (NCTC 12493), E. faecalis (NCTC 12493), E. coli (ATCC CRM 8739), K. pneumoniae (ATCC 43816), and P. aeruginosa (ATCC CRM 9027) were evaluated.
# (§2) The bacteria were inoculated in a different medium (Gram-positive bacteria were in TSB and Gram-negative bacteria were in LB) overnight, and the subculture was conducted in the same medium. When the bacteria reached a specific density, 100 µL of the dilution was added to each well of the 96-well microplate. Then 1 µL of peptide at a series of concentrations, the same concentration in the antimicrobial assay, were added into the well together with the bacteria. The plates were put into a moist shaking incubator with a speed of 200 rpm, and the temperature was set at 37 ℃. After a 24-h incubation, the liquid in the wells was aspirated, and each was washed twice by 100 µL PBS. One hundred µL of methanol were added into each well to stabilise the biofilm. After air-drying, 100 µL crystal violet was used to dye the biofilm, and they were dissolved in the 100 µL glacial acidic acid after drying. The solutions were transferred to a new microplate, and the absorbance of each well was tested by a microplate reader (EL808, Biolise BioTek Winooski, Minneapolis, MN, USA) at 595 nm wavelength. MBIC was the minimum concentration of the peptide showing no biofilm formation.
# The bacteria were inoculated in a different medium (Gram-positive bacteria were in TSB and Gram-negative bacteria were in LB) overnight, and the subculture was conducted in the same medium. When the bacteria reached a specific density, 100 µL of the dilution was added to each well of the 96-well microplates. The plates were put into a moist shaking incubator with a speed of 200 rpm and the temperature was 37 ℃. After a 24 h incubation, the liquid in the wells was aspirated and they were washed twice by 100 µL PBS of each well. The peptides with the same concentrations were diluted in the corresponding medium and 100 µL were added into each well. After a 24-h incubation, the liquid in the wells was aspirated and they were washed twice by 100 µL PBS. One hundred µL of methanol were added into the wells to stabilise the biofilms. After being air-dried, 100 µL crystal violet was used to dye the biofilm, and they were dissolved in the 100 µL glacial acidic acid after drying. The solutions were transferred to a new microplate, and the absorbance of each well was tested by a microplate reader (EL808, Biolise BioTek Winooski, Minneapolis, USA) at 595 nm wavelength.
# [2] = system: P. aeruginosa (B004 V2S2 B); assay type: cell-based, Pseudomonas aeruginosa
# How it was run: (§3)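 CLSI broth microdilution in Mueller Hinton Broth, with log-phase bacteria diluted to 5 × 10^5 CFU/mL and peptides added from a two-fold DMSO series (512 µM to 1 µM, as dosed; 1% DMSO in well). After overnight growth at 37 °C, absorbance at 550 nm gave the MIC as the lowest concentration showing no growth.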
# E. coli (ATCC BAA-2340) = assay type: cell-based, Escherichia coli
# How it was run: as §3
# [3] = system: wax moth (Galleria mellonella); test: Toxicity of peptides to waxworms; assay type: in vivo; details: uninfected waxworms, 7.5, 15 and 30 mg/kg, injection
# [4] = system: MRSA (NCTC 12493) biofilm; assay type: cell-based, Methicillin-resistant Staphylococcus aureus; details: NCTC 12493, 24 h
# Procedure: as §1, §2
# The bacteria were inoculated in a different medium (Gram-positive bacteria were in TSB and Gram-negative bacteria were in LB) overnight, and the subculture was conducted in the same medium. When the bacteria reached a specific density, 100 µL of the dilution was added to each well of the 96-well microplates. The plates were put into a moist shaking incubator with a speed of 200 rpm and the temperature was 37 ℃. […] The solutions were transferred to a new microplate, and the absorbance of each well was tested by a microplate reader (EL808, Biolise BioTek Winooski, Minneapolis, USA) at 595 nm wavelength.
SMILES,MIC [2] [µM],MIC (E. coli (ATCC BAA-2340)) [µM],MBEC [1] [µM],MBIC [1] [µM],MBC [2] [µM],MBC (E. coli (ATCC BAA-2340)) [µM],survival rate of waxworms treated with peptide [3] [%],MBIC [4] [µM]
CC[C@H](C)[C@H](NC(=O)[C@@H](NC(=O)CN)C(C)C)C(=O)N[C@H](C(=O)N[C@@H](CC(=O)O)C(=O)N[C@H](C(=O)N[C@@H](CC(C)C)C(=O)N[C@@H](CCCCN)C(=O)NCC(=O)N[C@@H](C)C(=O)N[C@@H](C)C(=O)N[C@@H](CCCCN)C(=O)N[C@H](C(=O)N[C@H](C(=O)N[C@@H](C)C(=O)N[C@@H](C)C(=O)N[C@@H](CCC(=O)O)C(=O)N[C@@H](CC(C)C)C(=O)N[C@@H](CC(C)C)C(=O)N[C@@H](CCCNC(=N)N)C(=O)N[C@@H](CCCCN)C(=O)N[C@@H](C)C(=O)N[C@@H](Cc1c[nH]cn1)C(N)=O)C(C)C)[C@@H](C)O)[C@@H](C)O)[C@@H](C)CC [tB2U] (H-GVIIDTLKGAAKTVAAELLRKAH-NH2),>512,–,>512,>512,>512,–,–,–
CC[C@H](C)[C@H](NC(=O)[C@@H](NC(=O)CN)C(C)C)C(=O)N[C@H](C(=O)N[C@@H](CC(=O)O)C(=O)N[C@H](C(=O)N[C@@H](CC(C)C)C(=O)N[C@@H](CCCCN)C(=O)NCC(=O)N[C@@H](C)C(=O)N[C@@H](C)C(=O)N[C@@H](CCCCN)C(=O)N[C@H](C(=O)N[C@H](C(=O)N[C@@H](C)C(=O)N[C@@H](C)C(=O)N[C@@H](CCC(=O)O)C(=O)N[C@@H](CC(C)C)C(=O)N[C@@H](CC(C)C)C(N)=O)C(C)C)[C@@H](C)O)[C@@H](C)O)[C@@H](C)CC [tB2U-α] (H-GVIIDTLKGAAKTVAAELL-NH2),>512,>512,>512,>512,>512,>512,–,–
CC[C@H](C)[C@H](NC(=O)[C@@H](NC(=O)CN)C(C)C)C(=O)N[C@H](C(=O)N[C@@H](CCCCN)C(=O)N[C@@H](CCCCN)C(=O)N[C@@H](CC(C)C)C(=O)N[C@@H](CCCCN)C(=O)NCC(=O)N[C@@H](C)C(=O)N[C@@H](C)C(=O)N[C@@H](CCCCN)C(=O)N[C@@H](CCCCN)C(=O)N[C@H](C(=O)N[C@@H](C)C(=O)N[C@@H](C)C(=O)N[C@@H](CCCCN)C(=O)N[C@@H](CC(C)C)C(=O)N[C@@H](CC(C)C)C(N)=O)C(C)C)[C@@H](C)CC [tB2U-6K] (H-GVIIKKLKGAAKKVAAKLL-NH2),64,8,> 512,32,64,8,100,32
CC[C@H](C)[C@H](NC(=O)[C@@H](NC(=O)CN)C(C)C)C(=O)N[C@H](C(=O)N[C@@H](CCCCN)C(=O)N[C@H](C(=O)N[C@@H](CC(C)C)C(=O)N[C@@H](CCCCN)C(=O)NCC(=O)N[C@@H](C)C(=O)N[C@@H](C)C(=O)N[C@@H](CCCCN)C(=O)N[C@H](C(=O)N[C@H](C(=O)N[C@@H](C)C(=O)N[C@@H](C)C(=O)N[C@@H](CCCCN)C(=O)N[C@@H](CC(C)C)C(=O)N[C@@H](CC(C)C)C(N)=O)C(C)C)[C@@H](C)O)[C@@H](C)O)[C@@H](C)CC [tB2U-K] (H-GVIIKTLKGAAKTVAAKLL-NH2),>512,16,> 512,128,>512,16,100,16

# Continued, in another order:
MIC [2] [µM],MIC (E. coli (ATCC BAA-2340)) [µM],SMILES,MBEC [1] [µM],MBIC [1] [µM],MBC [2] [µM],MBC (E. coli (ATCC BAA-2340)) [µM],survival rate of waxworms treated with peptide [3] [%],MBIC [4] [µM]
>512,>512,CC[C@H](C)[C@H](NC(=O)[C@@H](NC(=O)CN)C(C)C)C(=O)N[C@H](C(=O)N[C@@H](CCCCN)C(=O)N[C@H](C(=O)N[C@@H](CC(C)C)C(N)=O)[C@@H](C)O)[C@@H](C)CC [Peptide 7-tB2U-K] (H-GVIIKTL-NH2),>512,>512,>512,>512,–,–
>512,>512,CC[C@H](C)[C@H](NC(=O)[C@@H](NC(=O)CN)C(C)C)C(=O)N[C@H](C(=O)N[C@@H](CCCCN)C(=O)N[C@H](C(=O)N[C@@H](CC(C)C)C(=O)N[C@@H](CCCCN)C(=O)NCC(=O)N[C@@H](C)C(=O)N[C@@H](C)C(=O)N[C@@H](CCCCN)C(=O)N[C@H](C(=O)N[C@H](C(N)=O)C(C)C)[C@@H](C)O)[C@@H](C)O)[C@@H](C)CC [Peptide 14-tB2U-K] (H-GVIIKTLKGAAKTV-NH2),>512,>512,>512,>512,–,–
